Test results published in US20220289732A1, “HETEROCYCLIC WDR5 INHIBITORS AS ANTI-CANCER COMPOUNDS” (NOVARTIS AG, priority 2019, published 2022).

What was measured:
MV4-11 cells = assay: MV4-11 6-day cell growth CTG (CellTiter-Glo) assay; assay type: cell-based; settings: Homo sapiens, MV4-11, 144 h, 6 days, read-out: (c) MLL/WDR5 cell proliferation assay//MLL/WDR5 proliferation MV4:11 Qualified AC50
How it was run: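 IC50 comes from a dose-response fit of % inhibition relative to DMSO controls, with viable cells measured by CellTiter-Glo luminescence. Compounds were tested over 12 points (1:3, starting at 50 μM final) on MV4-11 cells plated at 300/well and grown 6 days.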

WDR5 = WDR5 (Homo sapiens, UniProt P61964); assay: WDR5 HTRF binding assay; settings: read-out: (a) WDR5 HTRF Pep Val v.1[Inhibitor/IC50]Qualified AC50
How it was run: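 In this HTRF displacement format, biotinylated MLL1 WIN peptide (3762-3773, 20 nM) binds WDR5 (6 nM) in 25 mM Hepes pH 7.5 with 100 mM NaCl, 2 mM DTT and 0.1% BSA for 20 min at rt. Detection used streptavidin-APC/anti-His-Eu for 1 hr. IC50 came from dose-response fits of normalized signal; 15 nM biotin-PEG-His peptide served as counter assay.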

[1] = target: wild type MLL1 four-member complex (MLL1-4C) (Homo sapiens, UniProt P61964); assay: MLL1 LC-MS assay (SAH production); assay type: biochemical; settings: read-out: (b) MLL LCMS Peptide Val.v.1 Qualified AC50
How it was run: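 SAH formation, measured by LC-MS/MS after a TFA quench containing d4-SAH, was normalised to no-compound and no-enzyme controls and fitted to a dose-response curve for IC50. Reactions ran 120 min at rt (pH 8.0 Tris buffer) with final 30 nM MLL1 four-member complex, 2.5 μM SAM and 10 μM biotinylated H3[1-21] peptide, after a 20-min enzyme/SAM-compound preincubation.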

SMILES	AC50 (MV4-11 cells)	IC50 (WDR5)	AC50 [1]
CNc1nccn1Cc1cc2c(c(-c3cc(CO)cnc3Cl)c1)CCN(Cc1cccc(OC)c1)C2=O [Example 52, 5-(2-chloro-5-(hydroxymethyl)pyridin-3-yl)-2-(3-methoxybenzyl)-7-((2-(methylamino)-1H-imidazol-1-yl)methyl)-3,4-dihydroisoquinolin-1(2H)-one]	10 to 1000 nM	< 10 nM	10 to 1000 nM
CNc1nccn1Cc1cc2c(c(-c3cc(CO)cnc3Cl)c1)CCN(Cc1ccc(F)c(OC)c1)C2=O [Example 53, 5-(2-chloro-5-(hydroxymethyl)pyridin-3-yl)-2-(4-fluoro-3-methoxybenzyl)-7-((2-(methylamino)-1H-imidazol-1-yl)methyl)-3,4-dihydroisoquinolin-1(2H)-one]	10 to 1000 nM	10 to 1000 nM	10 to 1000 nM
CNc1nccn1Cc1cc2c(c(-c3cn(C)nc3C(F)(F)F)c1)CCN(Cc1ccc(F)c(OC)c1)C2=O [Example 54, 2-(4-fluoro-3-methoxybenzyl)-5-(1-methyl-3-(trifluoromethyl)-1H-pyrazol-4-yl)-7-((2-(methylamino)-1H-imidazol-1-yl)methyl)-3,4-dihydroisoquinolin-1(2H)-one]	10 to 1000 nM	10 to 1000 nM	10 to 1000 nM
CNc1nccn1Cc1cc2c(c(-c3c[nH]nc3C)c1)CCN(Cc1ccc(F)c(OC)c1)C2=O [Example 55, 2-(4-fluoro-3-methoxybenzyl)-5-(3-methyl-1H-pyrazol-4-yl)-7-((2-(methylamino)-1H-imidazol-1-yl)methyl)-3,4-dihydroisoquinolin-1(2H)-one]	10 to 1000 nM	10 to 1000 nM	10 to 1000 nM
CNc1nccn1Cc1cc2c(c(-c3cc(CO)cnc3Cl)c1)CCN([C@@H](C)c1ccc(F)c(OC)c1)C2=O [Example 56, (S)-5-(2-chloro-5-(hydroxymethyl)pyridin-3-yl)-2-(1-(4-fluoro-3-methoxyphenyl)ethyl)-7-((2-(methylamino)-1H-imidazol-1-yl)methyl)-3,4-dihydroisoquinolin-1(2H)-one]	10 to 1000 nM	10 to 1000 nM	10 to 1000 nM
CNc1nccn1Cc1cc2c(c(-c3cc(CO)cnc3Cl)c1)CCN([C@H](C)c1ccc(F)c(OC)c1)C2=O [Example 57, (R)-5-(2-chloro-5-(hydroxymethyl)pyridin-3-yl)-2-(1-(4-fluoro-3-methoxyphenyl)ethyl)-7-((2-(methylamino)-1H-imidazol-1-yl)methyl)-3,4-dihydroisoquinolin-1(2H)-one]	10 to 1000 nM	10 to 1000 nM	10 to 1000 nM
CNc1nccn1Cc1cc2c(c(-c3cn(C)nc3C)c1)CCN(Cc1ccc(F)c(OC)c1)C2=O [Example 58, 5-(1,3-dimethyl-1H-pyrazol-4-yl)-2-(4-fluoro-3-methoxybenzyl)-7-((2-(methylamino)-1H-imidazol-1-yl)methyl)-3,4-dihydroisoquinolin-1(2H)-one]	10 to 1000 nM	10 to 1000 nM	10 to 1000 nM
CNc1nccn1Cc1cc2c(c(-c3cncnc3)c1)CCN([C@@H](C)c1cc(OC)c(F)cn1)C2=O [Example 59, (S)-2-(1-(5-fluoro-4-methoxypyridin-2-yl)ethyl)-7-((2-(methylamino)-1H-imidazol-1-yl)methyl)-5-(pyrimidin-5-yl)-3,4-dihydroisoquinolin-1(2H)-one]	10 to 1000 nM	10 to 1000 nM	10 to 1000 nM
CNc1nccn1Cc1cc2c(c(-c3ccnn3C)c1)CCN(Cc1cc(OC)c(F)cn1)C2=O [Example 60, 2-((5-fluoro-4-methoxypyridin-2-yl)methyl)-5-(1-methyl-1H-pyrazol-5-yl)-7-((2-(methylamino)-1H-imidazol-1-yl)methyl)-3,4-dihydroisoquinolin-1(2H)-one]	10 to 1000 nM	10 to 1000 nM	10 to 1000 nM
CNc1nccn1Cc1cc2c(c(-c3cc(CO)cnc3Cl)c1)CCN(Cc1cc(OC)c(F)cc1F)C2=O [Example 61, 5-(2-chloro-5-(hydroxymethyl)pyridin-3-yl)-2-(2,4-difluoro-5-methoxybenzyl)-7-((2-(methylamino)-1H-imidazol-1-yl)methyl)-3,4-dihydroisoquinolin-1(2H)-one]	10 to 1000 nM	10 to 1000 nM	10 to 1000 nM
CNc1nccn1Cc1cc2c(c(-c3cn(C)nc3C)c1)CCN([C@@H](C)c1cc(OC)c(F)cn1)C2=O [Example 62, (S)-5-(1,3-dimethyl-1H-pyrazol-4-yl)-2-(1-(5-fluoro-4-methoxypyridin-2-yl)ethyl)-7-((2-(methylamino)-1H-imidazol-1-yl)methyl)-3,4-dihydroisoquinolin-1(2H)-one]	10 to 1000 nM	10 to 1000 nM	10 to 1000 nM
CNc1nccn1Cc1cc2c(c(-c3ccn[nH]3)c1)CCN([C@@H](C)c1cc(OC)c(F)cn1)C2=O [Example 63, (S)-2-(1-(5-fluoro-4-methoxypyridin-2-yl)ethyl)-7-((2-(methylamino)-1H-imidazol-1-yl)methyl)-5-(1H-pyrazol-5-yl)-3,4-dihydroisoquinolin-1(2H)-one]	10 to 1000 nM	10 to 1000 nM	10 to 1000 nM
CNc1nccn1Cc1cc2c(c(-c3cn(C)nc3C(F)(F)F)c1)CCN(Cc1cc(OC)c(F)cn1)C2=O [Example 64, 2-((5-fluoro-4-methoxypyridin-2-yl)methyl)-5-(1-methyl-3-(trifluoromethyl)-1H-pyrazol-4-yl)-7-((2-(methylamino)-1H-imidazol-1-yl)methyl)-3,4-dihydroisoquinolin-1(2H)-one]	10 to 1000 nM	10 to 1000 nM	10 to 1000 nM
CNc1nccn1Cc1cc2c(c(-c3cc(CO)ccc3Cl)c1)CCN(Cc1ccc(F)c(OC)c1)C2=O [Example 65, 5-(2-chloro-5-(hydroxymethyl)phenyl)-2-(4-fluoro-3-methoxybenzyl)-7-((2-(methylamino)-1H-imidazol-1-yl)methyl)-3,4-dihydroisoquinolin-1(2H)-one]	10 to 1000 nM	10 to 1000 nM	10 to 1000 nM
CNc1nccn1Cc1cc2c(c(-c3cn(C)nc3C(F)F)c1)CCN(Cc1ccc(F)c(OC)c1)C2=O [Example 66, 5-(3-(difluoromethyl)-1-methyl-1H-pyrazol-4-yl)-2-(4-fluoro-3-methoxybenzyl)-7-((2-(methylamino)-1H-imidazol-1-yl)methyl)-3,4-dihydroisoquinolin-1(2H)-one]	10 to 1000 nM	10 to 1000 nM	10 to 1000 nM
CNc1nccn1Cc1cc2c(c(-c3cc(CO)cnc3Cl)c1)CCN(Cc1cc(F)cc(Cl)c1)C2=O [Example 67, 5-(2-chloro-5-(hydroxymethyl)pyridin-3-yl)-2-(3-chloro-5-fluorobenzyl)-7-((2-(methylamino)-1H-imidazol-1-yl)methyl)-3,4-dihydroisoquinolin-1(2H)-one]	10 to 1000 nM	10 to 1000 nM	10 to 1000 nM
CNc1nccn1Cc1cc2c(c(-c3cc(CO)cnc3Cl)c1)CCN(Cc1cc(OC)c(F)cn1)C2=O [Example 68, 5-(2-chloro-5-(hydroxymethyl)pyridin-3-yl)-2-((5-fluoro-4-methoxypyridin-2-yl)methyl)-7-((2-(methylamino)-1H-imidazol-1-yl)methyl)-3,4-dihydroisoquinolin-1(2H)-one]	10 to 1000 nM	10 to 1000 nM	10 to 1000 nM
CNc1nccn1Cc1cc2c(c(-c3cc(CO)cnc3Cl)c1)CCN(Cc1ccc(F)c(C#N)c1)C2=O [Example 69, 5-((5-(2-chloro-5-(hydroxymethyl)pyridin-3-yl)-7-((2-(methylamino)-1H-imidazol-1-yl)methyl)-1-oxo-3,4-dihydroisoquinolin-2(1H)-yl)methyl)-2-fluorobenzonitrile]	10 to 1000 nM	10 to 1000 nM	10 to 1000 nM
CNc1nccn1Cc1cc2c(c(-c3cc(CO)cnc3Cl)c1)CCN(Cc1ccc(F)c(F)c1)C2=O [Example 70, 5-(2-chloro-5-(hydroxymethyl)pyridin-3-yl)-2-(3,4-difluorobenzyl)-7-((2-(methylamino)-1H-imidazol-1-yl)methyl)-3,4-dihydroisoquinolin-1(2H)-one]	10 to 1000 nM	10 to 1000 nM	10 to 1000 nM
CNc1nccn1Cc1cc2c(c(-c3cn(C)nc3C)c1)CCN([C@H](C)c1cc(OC)c(F)cn1)C2=O [Example 71, (R)-5-(1,3-dimethyl-1H-pyrazol-4-yl)-2-(1-(5-fluoro-4-methoxypyridin-2-yl)ethyl)-7-((2-(methylamino)-1H-imidazol-1-yl)methyl)-3,4-dihydroisoquinolin-1(2H)-one]	10 to 1000 nM	10 to 1000 nM	10 to 1000 nM
CNc1nccn1Cc1cc2c(c(-c3ccnn3C)c1)CCN(Cc1ccc(F)c(OC)c1)C2=O [Example 72, 2-(4-fluoro-3-methoxybenzyl)-5-(1-methyl-1H-pyrazol-5-yl)-7-((2-(methylamino)-1H-imidazol-1-yl)methyl)-3,4-dihydroisoquinolin-1(2H)-one]	10 to 1000 nM	10 to 1000 nM	10 to 1000 nM
